Assay results from patent publication US9932311B2, “Antidiabetic tricyclic compounds” (Merck Sharp & Dohme Corp., priority 2013, dated 2018).

Experiments:
Human GPR40 [1] = biological target: T1, Human GPR40 (Homo sapiens, UniProt O14842); test: Inositol Phosphate Turnover (IP1) Assay 1; format: cell-based; design: expressed in transfected cells; host or cells: HEK cells stably expressing the aequorin reporter; details: HEK cells stably expressing human GPR40, 96-well, 3H-inositol labeling, SPA beads
T1 sequence (O14842 whole entry): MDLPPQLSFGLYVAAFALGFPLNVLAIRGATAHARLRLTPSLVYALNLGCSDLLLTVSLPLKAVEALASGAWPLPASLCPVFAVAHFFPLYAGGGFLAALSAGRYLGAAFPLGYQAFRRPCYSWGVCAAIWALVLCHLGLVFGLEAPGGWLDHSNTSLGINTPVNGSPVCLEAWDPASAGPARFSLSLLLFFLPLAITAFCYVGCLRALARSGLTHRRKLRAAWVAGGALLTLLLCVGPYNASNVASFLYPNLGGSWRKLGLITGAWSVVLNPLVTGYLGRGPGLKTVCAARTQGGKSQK
Protocol: (§1) Human and mouse GPR40 stable cell-lines were generated in CHO cells stably expressing NFAT BLA (Beta-lactamase). A human GPR40 stable cell-line was generated in HEK cells stably expressing the aequorin expressing reporter. The expression plasmids were transfected using lipofectamine (Life Technologies) following manufacturer's instructions. Stable cell-lines were generated following drug selection.
The assay was performed in 96-well format. HEK cells stably expressing human GPR40 were plated to be 60-80% confluent within 72 h. After 72 h, the plates were aspirated and the cells washed with inositol-free DMEM (ICN). The wash media was replaced with 150 μL of 3H-inositol labeling media (inositol-free media containing 0.4% human albumin or 0.4% mouse albumin, 1× pen/strep antibiotics, glutamine, 25 mM HEPES to which was added 3H-myo-inositol NEN #NET114A 1 mCi/mL, 25 Ci/mmol diluted 1:150 in loading media with a final specific radioactivity of 1 μCi/150 μL). Alternatively, the human and mouse albumin can be added after the overnight labeling step before the addition of LiCl.
The assay was typically run the next day after 18 h labeling. On the day of the assay, 5 μL of 300 mM LiCl was added to all wells and incubated at 37 degrees for 20 min 0.75 μL of 200× compounds were added and incubated with the cells for 60 min at 37 degrees. The media was then aspirated off and the assay terminated with the addition of 60 μL 10 mM formic acid. The cells were lysed for 60 min at room temperature. 15-30 μL of lysate was mixed with 70 μL/1 mg YSi SPA beads (Amersham) in clear bottom Isoplates. The plates were shaken for 2 h at room temperature. Beads were allowed to settle and the plates were counted in the Wallac Microbeta.

Human GPR40 [2] = biological target: T1, Human GPR40; test: FLIPR assay (agonist-induced calcium mobilization); format: cell-based; design: expressed in transfected cells; details: GPR40/CHO NFAT BLA cells
Protocol: as §1
FLIPR (Fluorimetric Imaging Plate Reader, Molecular Devices) assays were performed to measure agonist-induced calcium mobilization of the stable clones. For the FLIPR assay, one day before assay, GPR40/CHO NFAT BLA cells were seeded into black-wall-clear-bottom 384-well plates (Costar) at 1.4×10e4 cells/20 μL medium/well. The cells were incubated with 20 μl/well of the assay buffer (HBSS, 0.1% BSA, 20 mM HEPES, 2.5 mM probenecid, pH 7.4) containing 8 μM fluo-4, AM, 0.08% pluronic acid at room temperature for 100 minutes. Fluorescence output was measured using FLIPR. Compounds were dissolved in DMSO and diluted to desired concentrations with assay buffer. 13.3 μL/well of compound solution was added.

Structure (SMILES) | EC50 (Human GPR40 [1]) | EC50 (Human GPR40 [2])
CS(=O)(=O)CCCOc1ccc(-c2cc(COc3cc4c(cn3)[C@H]3[C@@H](C4)[C@@H]3C(=O)O)c(F)cc2C(F)(F)F)c(F)c1 [Example 8, (5aR,6S,6aS)-3-((2′,4-difluoro-4′-(3-(methyl-sulfonyl)-propoxy)-6-(trifluoromethyl)-[1,1′-biphenyl]-3-yl)methoxy)-5,5a,6,6a-tetrahydro-cyclopropa[4,5]cyclo-penta[1,2-c]pyridine-6-carboxylic acid] | 6.54 nM | 9.2 nM
Cc1nc(OCCC(C)(C)O)ccc1-c1cc(COc2cc3c(cn2)[C@H]2[C@@H](C3)[C@@H]2C(=O)O)c(F)cc1C(F)(F)F [Example 3, (5aR,6S,6aS)-3-((2-fluoro-5-(6-(3-hydroxy-3-methyl-butoxy)-2-methyl-pyridin-3-yl)-4-(trifluoromethyl)-benzyl)-oxy)-5,5a, 6,6a-tetrahydro-cyclopropa[4,5] cyclopenta[1,2-c] pyridine-6-carboxylic acid] | 4.95 nM | 1.52 nM
CC(C)(O)CCOc1ccc(-c2cc(COc3cc4c(cn3)[C@H]3[C@@H](C4)[C@@H]3C(=O)O)c(F)cc2C(F)(F)F)c(F)c1 [Example 7, (5aR,6S,6aS)-3-((2′,4-difluoro-4′-(3-hydroxy-3-methylbutoxy)-6-(trifluoro-methyl)-[1,1′-biphenyl]-3-yl)methoxy)-5,5a,6,6a-tetrahydrocyclopropa [4,5]cyclopenta[1,2-c] pyridine-6-carboxylic acid] | 11.4 nM | 11.2 nM
CC(C)(O)CCOc1ncc(-c2cc(COc3cc4c(cn3)[C@H]3[C@@H](C4)[C@@H]3C(=O)O)c(F)cc2C(F)(F)F)cc1F [Example 15, (5aR,6S,6aS)-3-((2-fluoro-5-(5-fluoro-6-(3-hydroxy-3-methylbutoxy)pyridin-3-yl)-4-(trifluoromethyl)benzyl)oxy)-5,5a,6,6a-tetrahydrocyclopropa[4,5]cyclopenta[1,2-c]pyridine-6-carboxylic acid] | 7.97 nM | 4.88 nM
Cc1cc(OCCC(C)(C)O)ccc1-c1cc(COc2cc3c(cn2)[C@H]2[C@@H](C3)[C@@H]2C(=O)O)c(F)cc1C(F)F [Example 4, (5aR,6S,6aS)-3-((6-(difluoro-methyl)-4-fluoro-4′-(3-hydroxy-3-methyl-butoxy)-2′-methyl-[1,1′-biphenyl]-3-yl)methoxy)-5,5a,6,6a-tetrahydrocyclo-propa[4,5] cyclopenta[1,2-c] pyridine-6-carboxylic acid] | 5.25 nM | 14.4 nM
CC(C)(O)CCOc1ccc(-c2cc(COc3cc4c(cn3)[C@H]3[C@@H](C4)[C@@H]3C(=O)O)c(F)cc2C(F)(F)F)cc1F [Example 6, (5aR,6S,6aS)-3-((3′,4-difluoro-4′-(3-hydroxy-3-methyl-butoxy)-6-(trifluoro-methyl)-[1,1′-biphenyl]-3-yl)methoxy)-5,5a,6,6a-tetrahydrocyclopropa [4,5]cyclopenta[1,2-c] pyridine-6-carboxylic acid] | 14.7 nM | 10.9 nM
CC(C)(O)CCOc1ccc(-c2cc(COc3cc4c(cn3)[C@H]3[C@@H](C4)[C@@H]3C(=O)O)c(F)cc2C(F)(F)F)c(C(F)F)c1 [Example 13, (5aR,6S,6aS)-3-((2'-(difluoromethyl)-4-fluoro-4'-(3-hydroxy-3-methyl-butoxy)-6-(trifluoromethyl)-[1,1'-biphenyl]-3-yl)-methoxy)-5,5a,6,6a-tetra-hydrocyclo-propa[4,5]cyclopenta [1,2-c]pyridine-6-carboxylic acid] | 5.94 nM | 9.66 nM
Cc1nc(OCCC(C)(O)C(F)F)ccc1-c1cc(COc2cc3c(cn2)[C@H]2[C@@H](C3)[C@@H]2C(=O)O)c(F)cc1C(F)(F)F (stereo partly drawn) [Example 16, (5aR,6S,6aS)-3-((5-(6-(4,4-difluoro-3-hydroxy-3-methyl-butoxy)-2-methyl-pyridin-3-yl)-2-fluoro-4-(trifluoro-methyl)-benzyl)-oxy)-5,5a,6,6a-tetrahydro-cyclo-propa[4,5]cyclopenta [1,2-c]pyridine-6-carboxylic acid] | 10.4 nM | 
Cc1cc(OCCCS(C)(=O)=O)ccc1-c1cc(COc2cc3c(cn2)[C@H]2[C@@H](C3)[C@@H]2C(=O)O)c(F)cc1C(F)(F)F [Example 2, (5aR,6S,6aS)-3-((4-fluoro-2′-methyl-4′-(3-(methyl-sulfonyl)-propoxy)-6-(tri-fluoromethyl)-[1,1′-biphenyl]-3-yl)methoxy)-5,5a,6,6a-tetrahydrocyclo-propa[4,5]cyclopenta [1,2-c]pyridine-6-carboxylic acid] | 2.98 nM | 5.75 nM
O=C(O)[C@H]1[C@@H]2Cc3cc(OCc4cc(-c5c(F)cc(OCCC6(O)COC6)cc5F)c(C(F)(F)F)cc4F)ncc3[C@@H]21 [Example 9, (5aR,6S,6aS)-3-((2′,4,6′-trifluoro-4′-(2-(3-hydroxy-oxetan-3-yl)ethoxy)-6-(trifluoromethyl)-[1,1′-biphenyl]-3-yl)methoxy)-5,5a,6,6a-tetrahydrocyclopropa [4,5]cyclopenta[1,2-c]pyridine-6-carboxylic acid] | 11.1 nM | 6.89 nM
Cc1cc(OCCC(O)C(C)(C)O)cc(C)c1-c1cc(COc2cc3c(cn2)[C@H]2[C@@H](C3)[C@@H]2C(=O)O)c(F)cc1F (stereo partly drawn) [Example 18, (5aR,6S,6aS)-3-((4′-((3,4-dihydroxy-4-methylpentyl)oxy)-4,6-difluoro-2′,6′-dimethyl-[1,1′-biphenyl]-3-yl)methoxy)-5,5a,6,6a-tetrahydrocycloprop[4,5]cyclopenta[1,2-c]pyridine-6-carboxylic acid] | 19.2 nM | 
CC(C)(O)CCOc1ccc(-c2cc(COc3cc4c(cn3)[C@H]3[C@@H](C4)[C@@H]3C(=O)O)c(F)cc2C(F)F)cc1F [Example 11, (5aR,6S,6aS)-3-((6-(di-fluoro-methyl)-3',4-di-fluoro-4'-(3-hydroxy-3-methyl-butoxy)-[1,1'-biphenyl]-3-yl)methoxy)-5,5a,6,6a-tetrahydro-cyclopropa[4,5]cyclo-penta[1,2-c]pyridine-6-carboxylic acid] | 17.6 nM | 16.7 nM
Cc1cc(OCCC2(O)COC2)ccc1-c1cc(COc2cc3c(cn2)[C@H]2[C@@H](C3)[C@@H]2C(=O)O)c(F)cc1C(F)(F)F [Example 14, (5aR,6S,6aS)-3-((4-fluoro-4′-(2-(3-hydroxyoxetan-3-yl)ethoxy)-2′-methyl-6-(trifluoromethyl)-[1,1′-biphenyl]-3-yl)methoxy)-5,5a,6,6a-tetrahydrocyclopropa[4,5]cyclopenta[1,2-c]pyridine-6-carboxylic acid] | 5.54 nM | 10.4 nM
CC(C)(O)CCOc1cc(F)c(-c2cc(COc3cc4c(cn3)[C@H]3[C@@H](C4)[C@@H]3C(=O)O)c(F)cc2C(F)(F)F)c(F)c1 [Example 10, (5aR,6S,6aS)-3-((2′,4,6′-trifluoro-4′-(3-hydroxy-3-methylbutoxy)-6-(trifluoromethyl)-[1,1′-biphenyl]-3-yl)methoxy)-5,5a,6,6a-tetrahydrocyclo-propa[4,5]cyclopenta [1,2-c]pyridine-6-carboxylic acid] | 27.2 nM | 6.4 nM
CC(C)(O)CCOc1ccc(-c2cc(COc3cc4c(cn3)[C@H]3[C@@H](C4)[C@@H]3C(=O)O)c(F)cc2C(F)(F)F)cc1 [Example 5, (5aR,6S,6aS)-3-((4-fluoro-4′-(3-hydroxy-3-methylbutoxy)-6-(trifluoromethyl)-[1,1′-biphenyl]-3-yl)methoxy)-5,5a,6,6a-tetrahydrocyclopropa[4,5]cyclopenta[1,2-c]pyridine-6-carboxylic acid] | 6.24 nM | 24.9 nM
Cc1cc(OCCC(C)(C)O)ccc1-c1cc(COc2cc3c(cn2)[C@H]2[C@@H](C3)[C@@H]2C(=O)O)c(F)cc1C(F)(F)F [Example 1] | 9.89 nM | 16.7 nM
CC(O)(CCOc1ccc(-c2cc(COc3cc4c(cn3)[C@H]3[C@@H](C4)[C@@H]3C(=O)O)c(F)cc2C(F)(F)F)cc1)C(F)F (stereo partly drawn) [Example 12, (5aR,6S,6aS)-3-((4′-(4,4-difluoro-3-hydroxy-3-methylbutoxy)-4-fluoro-6-(trifluoromethyl)-[1,1′-biphenyl]-3-yl)methoxy)-5,5a,6,6a-tetrahydrocyclopropa[4,5]cyclopenta[1,2-c]pyridine-6-carboxylic acid] | 20.3 nM | 12.5 nM
